{"source": "patent US8883183B2", "about": "“Medical devices incorporating collagen inhibitors” (Wake Forest University Health Sciences, priority 2008, dated 2014)", "key": {"[1]": {"system": "full thickness dermal incisions", "test": "Rat dorsal full thickness dermal incision wound healing model", "assay_type": "in vivo", "source_text": "A total of nine animals underwent surgery: three controls and six treatment animals. On each control animal four full thickness dermal incisions were made on the dorsum. The two anterior incisions were closed with uncoated 3-0 Vicryl and N-butyl-2-cyanoacrylate glue; the posterior incisions were closed with Vicryl alone. In the experimental animals four full thickness wounds were made on the dorsum; the two anterior incisions were closed uncoated Vicryl and a mixture of HF—Br and N-butyl-2-cyanoacrylate (0.5 cc of HF—Br was added to 0.5 cc of N-butyl cyanoacrylate glue) was applied topically to the closed wound. The two posterior wounds were closed with HF—Br coated 3-0 Vicryl. Two treatment animals and one control animal were then euthanized at 2, 6, and 12 weeks and soft tissue specimens were taken for analysis.\nSoft tissue samples were harvested, embedded in paraffin and sectioned (5 μm). Sections were stained with Hematoxylin and Eosin (H&E) and Masson's Trichrome. Inflammation scores were recorded according to the method of Storch (Surgical Infections. 2002; 3: 89-98). The area of scar tissue deposition was approximated and calculated with light microscopy and a Zeiss™ digital image capture software system.\nTo evaluate levels of newly formed collagen, tissue samples were digested in 1M NaCl in 0.05M Tris. Salt soluble collagen was then bound with a Sircol™ dye detection system and content was measured with UV spectrophotometry at […]. Percent tissue masses of salt soluble collagen were higher in all week 2 samples.\nTensile strength of dermal wound tissue specimens is assessed by measuring the breaking point with a tensometer. Tissue specimens are harvested and analyzed immediately after animals are sacrificed. The specimens are attached to the tensometer and pressure is applied until the wound breaks. This breaking pressure is recorded as tensile strength.\nSkin samples were harvested so that the plane of the scar would be perpendicular to the direction of force applied. Samples were frozen, re-thawed, and secured by clamps in an tensometer (Instron™ Norwood, Mass.). Force was then applied until samples broke. Ultimate tensile load, percent elongation, and stiffness were then calculated for three control and three HF—Br treated samples at 2 and 12 weeks. Averages were reported. Average stiffness, ultimate tensile load, and percent elongation for all tissue samples increased from 2 to 12 weeks (FIG. 9)."}, "[2]": {"test": "In vitro elution of halofuginone from coated Vicryl sutures into PBS", "assay_type": "physicochemical", "settings": "UV spectroscopy at 243 nm", "method": "To determine halofuginone elution, an in vitro elution study was performed. The release of halofuginone from coated Vicryl sutures into phosphate buffered saline (PBS) was used to estimate kinetics of drug release in vivo. A 2.5 cm segment of HF—Br coated Vicryl was placed in 1.5 mL of PBS and incubated at 37° C. At 5, 15, 30, and 45 minutes and 1, 2, 4, 8, 24, 48, 72, and 96 hours the segment was transferred into a new 1.5 mL aliquot of PBS, and the amount of halofuginone from the previous aliquot was measured with UV spectrophotometry at 243 nm. Data from UV spectrophotometry indicated a rapid release of HF—Br into PBS in vitro (FIG. 3). It was approximated that 90% of the total drug mass was released in 30 minutes and that the drug was nearly eliminated in 2 hours."}, "[3]": {"system": "alpha 1 collagen gene expression", "test": "Real time qPCR of alpha 1 collagen gene expression in wound border skin", "assay_type": "in vivo, rat", "settings": "wounds treated topically, suture only animals", "source_text": "To determine alpha 1 collagen gene expression (in suture only animals), 2 mm punch biopsies of skin were taken at the border of wounds adjacent to suture material. Samples were flash frozen, pulverized, and RNA was extracted with Trizol reagent. Real time qPCR was employed to measure gene expression using rat 1-alpha-2 collagen ampliset. Relative quantities of alpha 1 collagen gene expression were normalized with expression levels of 18S and GAPDH RNA. These values were then divided by the relative quantity of alpha 1 collagen gene expression in normal skin."}, "paranasal sinus wounds": {"system": "paranasal sinus wounds", "test": "Rat model of paranasal sinus surgery, HF-coated cellulose pack", "assay_type": "in vivo", "settings": "topical administration", "method": "Topical application of a halofuginone/cellulose derivative packing was tested for the prevention of scar tissue formation in the paranasal sinuses of a rat. The paired, anatomically identical paranasal sinuses of the rat allow one side to serve as a control and the other to serve as experimental. The control sinus was packed with an uncoated cellulose derivative packing material (Merocel). The other (experimental) sinus cavity was packed with a halofuginone bromide coated cellulose derivative compound packing material. A second set of animals underwent paranasal sinus surgery and no packing material of any kind was placed. Both packing preparations provide adequate homeostasis and require removal, as in the human clinical scenario. The surgical wound was closed using absorbable subcuticular sutures. Sinus surgery was performed in the rat and packs placed for 5 days. Sinus specimens were harvested and analyzed.\nIn vivo elution studies were performed on packs removed 5 days post-operatively, placed in 10 mL PBS for 8 hrs, and 300 uL aliquot placed in spectrophotometer (blanked with a control pack removed post-operatively)."}}}
{"compound": "O=C(CC1NCCCC1O)Cn1cnc2cc(Br)c(Cl)cc2c1=O", "note": "(centres unmarked) [HF—Br, 7-bromo-6-chloro-3-[3-(3-hydroxy-2-piperidinyl)-2-oxopropyl]-4(3H)]", "values": [{"measurement": "inflammation scores", "setting": "[1]; H&E, weeks 2, 6 and 12, vs controls", "value": "consistently lower"}, {"measurement": "cross sectional areas of collagen deposition (scar)", "setting": "[1]; Masson's trichrome, vs controls", "value": "consistently smaller"}, {"measurement": "salt soluble collagen levels", "setting": "[1]; Sircol assay, treated vs control, each time point", "value": "No significant difference"}, {"measurement": "difference in collagen staining between treated and control", "setting": "[1]; Week 2", "value": 2.7, "unit": "fold"}, {"measurement": "wound area approximation", "setting": "[1]; Week 2", "value": "322,107 μm^2"}, {"measurement": "gross appearance of wounds", "setting": "[1]; later time points, vs control", "value": "No significant difference in appearance"}, {"measurement": "stiffness, ultimate tensile load and percent elongation (tensile strength)", "setting": "[1]; rat, in vivo", "value": "No significant difference"}, {"measurement": "gross appearance of wounds (erythema and induration)", "setting": "[1]; two weeks, vs control wounds", "value": "More erythema and induration were visible in control wounds"}, {"measurement": "release of HF—Br into PBS in vitro", "setting": "[2]", "value": "rapid drug release"}, {"measurement": "1-alpha-2 collagen gene expression", "setting": "[3]", "value": "inhibited"}, {"measurement": "post-operative scar formation", "setting": "paranasal sinus wounds", "value": "reduced post-operative scar formation"}]}
